# Structures can show the parent of a compound that is named as a salt. Non-standard residues stand in square brackets, D forms with d. Residues, ends and D or L forms follow the SMILES beside them. dPhe(4-Cl) = N[C@H](Cc1ccc(Cl)cc1)C(=O)O; d2Nal = N[C@H](Cc1ccc2ccccc2c1)C(=O)O; Lys(iPr) = CC(C)NCCCC[C@H](N)C(=O)O; d3Pal = N[C@H](Cc1cccnc1)C(=O)O
# Test system: rat mast cells
# Assay: Histamine release assay, rat mast cells
# Conditions: not given
# Experimental: The term “histamine-releasing activity”, as used herein, refers to the tendency of a compound to release histamine when administered to a subject. The histamine-releasing activity of a compound can be measured with an in vitro assay (described in more detail, infra). […] Histamine-releasing activity was assayed by the method described in U.S. Pat. No. 4,851,385 to Roeske. Briefly, a suspension of rat mast cells was added to increasing concentrations of an LHRH antagonist peptide and incubated for 15 minutes at 37° C. The buffer contained 25 mM PIPES, pH 7.4, NaCl (119 mM), KCl (5 mM), NaOH (40 mM) glucose (5.6 mM), CaCl2 (1 mM) and 0.1% bovine serum albumin.
row,"Histamine-releasing activity, in words",Molecule
1,very low histamine release,"CC(=O)N[C@H](Cc1ccc2ccccc2c1)C(=O)N[C@H](Cc1ccc(Cl)cc1)C(=O)N[C@H](Cc1cccnc1)C(=O)N[C@@H](CO)C(=O)N[C@@H](Cc1ccc(O)cc1)C(=O)N[C@H](CCC(N)=O)C(=O)N[C@@H](CC(C)C)C(=O)N[C@@H](CCCCNC(C)C)C(=O)N1CCC[C@H]1C(=O)N[C@H](C)C(N)=O [Compound 3341, Ac-D-Nal^1,4-Cl-D-Phe^2, D-Pal^3, D-Gln^6-Lys(iPr)^8, D-Ala^10-LHRH.TFA] (Ac-[d2Nal][dPhe(4-Cl)][d3Pal]SY[dQ]L[Lys(iPr)]P[dA]-NH2)"

# Test system: ovulation in female rats
# Assay: Anti-ovulatory activity (AOA) in vivo assay in rats
# Design: species or system rat
# Conditions: dose 1 μg per rat
# Experimental: As used herein, “LHRH antagonist peptide” is intended to include peptides and peptide analogs which inhibit LHRH activity (i.e., has “LHRH antagonist activity”) in vivo or in vitro. Candidate LHRH antagonist peptides can be assayed, for example, in the animal model described in Corbin and Beattie, Endocrine Res. Commun. 2:1 (1975) (and see infra). In this assay, the LHRH antagonistic activity of a candidate compound is assayed by measuring the antiovulatory activity (AOA) of the compound in rats.
# Anti-ovulatory activity (AOA) was measured by an in vivo assay in rats, as described in Corbin and Beattie, Endocrine Res. Commun. 2:1 (1975). In brief, female rats are injected with a candidate LHRH antagonist on the day of proestrus; in general, the candidate LHRH antagonist was dissolved in 0.1% DMSO. The ability of the candidate peptide to inhibit ovulation is measured by determining the number of rats which ovulate. A candidate peptide is considered to have LHRH antagonist qualities if it inhibits ovulation in at least 50% of the treated rats at a dose of 5 μg per rat. Preferred LHRH antagonists inhibit ovulation in at least 50% of rats at a dose of 2 μg per rat, more preferably at a dose of […], and still more preferably at a dose of 0.5 μg per rat.
row,Molecule,AO activity (AOA): rats which ovulate / rats treated
1,"Ac-D-Nal^1, 4-Cl-D-Phe^2, D-Pal^3, His^5D-Pal(iPr)^6, Lys(iPr)^8, D-Ala^10-LHRH.2TFA [Compound 3754]",5/8@1.0
2,"Ac-D-Nal^1, 4-Cl-D-Phe^2, D-Pal^3, Lys(CNa)^5, D-Lys(CNa)^6, Lys(iPr)^8, D-Ala^10-LHRH.2TFA [Compound 3551]",6/8@1 μg
3,"Ac-D-Nal^1, 4-Cl-D-Phe^2, D-Pal^3, Lys(ClNic)^5, D-Lys(ClNic)^6, Lys(iPr)^8, D-Ala^10-LHRH.2TFA [Compound 3544]",6/8@1 μg
4,"Ac-D-Nal^1, 4-Cl-D-Phe^2, D-Pal^3, Lys(Nic)^5, D-Pal(Bzl)^6, Lys(iPr)^8, D-Ala^10-LHRH.3TFA [Compound 3547]",6/8@1 μg
5,"Ac-D-Nal^1, 4-Cl-D-Phe^2, D-Pal^3, Lys(ONic)^5, D-Lys(ONic)^6, Lys(iPr)^8, D-Ala^10-LHRH.TFA [Compound 3503]",6/8@1 μg
6,"Ac-D-Nal^1, 4-Cl-D-Phe^2, D-Pal^3, Lys(Otac)^5, D-Lys(Otac)^6, Lys(iPr)^8, D-Ala^10-LHRH.TFA [Compound 3502]",6/8@1 μg
7,"Ac-D-Nal^1, 4-Cl-D-Phe^2, D-Pal^3, Lys(Pyz)^5, D-Lys(Pyz)^6, Lys(iPr)^8, D-Ala^10-LHRH.TFA [Compound 3504]",4/8@1 μg
8,"Ac-D-Nal^1, 4-Cl-D-Phe^2, D-Pal^3, Lys(TFAc)^6, Lys(iPr)^8, D-Ala^10-LHRH.2TFA [Compound 3546]",6/8@1 μg
9,"Ac-D-Nal^1, 4-Cl-D-Phe^2, D-Pal^3, Lys(iPr)^5, D-Lys(4HBc)^6, Lys(iPr)^8, D-Ala^10-LHRH.2TFA [Compound 3745]",6/8@1.0
10,"Ac-D-Nal^1, 4-Cl-D-Phe^2, D-Pal^3, Lys(iPr)^5, D-Trp^6, Trp^7,Orn^8, D-Ala^10-LHRH.TFA [Compound 3855]",4/8@1.0
11,"Ac-D-Nal^1, 4-Cl-D-Phe^2, D-Pal^3, Lys^5, D-Pal(iPr)^6, Lys(iPr)^8, D-Ala^10-LHRH.4TFA [Compound 3548]",6/8@1 μg
12,"Ac-D-Nal^1, 4-Cl-D-Phe^2, D-Pal^3, N-Me-Ala^5, D-Pal(iPr)^6, Lys(iPr)^8, D-Ala^10-LHRH.2TFA [Compound 3757]",7/8@1.0
13,"Ac-D-Nal^1, 4-Cl-D-Phe^2, D-Pal^3, N-Me-Tyr^5, D-Lys(Ac)^6, Lys(iPr)^8, D-Ala^10-LHRH.TFA [Compound 3829]",8/8@1.0
14,"Ac-D-Nal^1, 4-Cl-D-Phe^2, D-Pal^3, Pal^5, D-Cit^6, Lys(iPr)^8, D-Ala^10-LHRH.TFA [Compound 3432]",7/8@1 μg
15,"Ac-D-Nal^1, 4-Cl-D-Phe^2, D-Pal^3, Ser^5, D-Pal(iPr)^6, Lys(iPr)^8, D-Ala^10-LHRH.2TFA [Compound 3743]",8/8@1.0
16,"Ac-D-Nal^1, 4-Cl-D-Phe^2, D-Pal^3,D-Lys(Mts)^6, Lys(iPr)^8, D-Ala^10-LHRH.TFA [Compound 3761]",7/8@1.0
17,"Ac-D-Nal^1, 4-Cl-D-Phe^2, D-Phe^2, D-Pal^3, Ala^5, D-Pal(iPr)^6, Lys(iPr)^8, D-Ala^10-LHRH.2TFA [Compound 3756]",6/8@1.0
18,"Ac-D-Nal^1, 4-Cl-D-Phe^2, D-Trp^3, D-Arg^6, Lys(COCH2Br)^8, D-Ala^10-LHRH.TFA [Compound 3926]",6/8@1.0

row,Molecule,AO activity (AOA): rats which ovulate / rats treated
1,"Ac-D-Nal^1, 4-Cl-D-Phe^2, D-Trp^3, D-Arg^6, Met^8, D-Ala^10-LHRH.TFA [Compound 3880]",8/8@1.0
2,"Ac-D-Nal^1, 4-Cl-D-Phe^2, D-Trp^3, D-Met(S^+CH2C6H5)^6, D-Ala^10-LHRH.2TFA [Compound 3961]",3/8@1.00
3,"Ac-D-Nal^1, 4-Cl-D-Phe^2, D-Trp^3, D-Met(S^+CH2—CH═CH2)^6, D-Ala^10-LHRH.2TFA [Compound 3984]",3/8@1.00
4,"Ac-D-Nal^1, 4-Cl-D-Phe^2, D-Trp^3, D-Met^6, D-Ala^10-LHRH.TFA [Compound 3881]",7/8@1.0
5,"Ac-D-Nal^1, C^αMe-4Cl-Phe^2, D-Pal^3, N^αMe-Tyr^5, D-Pal(iPr)^6, Lys(iPr)^8, D-Ala^10-LHRH.TFA [Compound 3541]",1/8@1 μg
6,"Ac-D-Pal^1, 4-Cl-D-Phe^2, D-Pal^3, D-Pal(iPr)^6, Lys(iPr)^8, D-Ala^10-LHRH.2TFA [Compound 3804]",8/8@1.0
7,"Ac-D-Qal^1, 4-Cl-D-Phe^2, D-Pal^3, D-Lys(Ac)^6, Lys(iPr)^8, D-Ala^10-LHRH.TFA [Compound 3740]",6/8@1.0
8,"Ac-D-Qal^1, 4-Cl-D-Phe^2, D-Pal^3, D-Lys(Dodac)^6, Lys(iPr)^8, D-Ala^10-LHRH.TFA [Compound 3742]",6/8@1.0
9,"Ac-D-Qal^1, 4-Cl-D-Phe^2, D-Pal^3, D-Lys(Gulonyl)^6, Lys(iPr)^8, D-Ala^10-LHRH.TFA [Compound 3785]",7/8@1.0
10,"Ac-D-Qal^1, 4-Cl-D-Phe^2, D-Pal^3, D-Lys(Imdac)^6, Lys(iPr)^8, D-Ala^10-LHRH.TFA [Compound 3800]",7/8@1.0
11,"Ac-D-Qal^1, 4-Cl-D-Phe^2, D-Pal^3, D-Lys(Onic)^6, Lys(iPr)^8, D-Ala^10-LHRH.TFA [Compound 3801]",8/8@1.0
12,"Ac-D-Qal^1, 4-Cl-D-Phe^2, D-Pal^3, D-Lys(Otac)^6, Lys(iPr)^8, D-Ala^10-LHRH.TFA [Compound 3802]",5/8@1.0
13,"Ac-D-Qal^1, 4-Cl-D-Phe^2, D-Pal^3, D-Lys(Ppic)^6, Lys(iPr)^8, D-Ala^10-LHRH.TFA [Compound 3787]",7/8@1.0
14,"Ac-D-Qal^1, 4-Cl-D-Phe^2, D-Pal^3, D-Lys(pGlu)^6, Lys(iPr)^8, D-Ala^10-LHRH.TFA [Compound 3723]",7/8@1.0
15,"Ac-N^αMe-D-Nal^1, 4-Cl-D-Phe^2, D-Pal^3, D-Cit^6, Lys(iPr)^8, D-Ala^10-LHRH.TFA [Compound 3442]",7/8@1 μg
16,"Ac-Sar^1, 4-Cl-D-Phe^2, 1-1-Nal^3, D-Pal(Bzl)^6, Lys(iPr)^8,D-Ala^10-LHRH.2TFA [Compound 3769]",6/8@1.0
17,"Ac-Sar^1, 4-Cl-D-Phe^2, D-1-Nal^3, D-Pal(iPr)^6, Lys(iPr)^8, D-Ala^10-LHRH.2TFA [Compound 3772]",8/8@1.0
18,"Ac-Sar^1, 4-Cl-D-Phe^2, L-1-Nal^3, D-Pal(iPr)^6, Lys(iPr)^8, D-Ala^10-LHRH.2TFA [Compound 3773]",7/8@1.0

# Same assay, conditions: dose 2 μg per rat
row,Molecule,AO activity (AOA): rats which ovulate / rats treated
1,"Ac-D-Nal^1, 4-Cl-D-Phe^2, D-Trp^3, D-Met(S^+CH2C6H5)^6, D-Ala^10-LHRH.2TFA [Compound 3961]",4/8@2.00

# Same assay, conditions: dose 5 μg per rat
row,Molecule,AO activity (AOA): rats which ovulate / rats treated
1,"Ac-D-Nal^1, 4-Cl-D-Phe^2, D-Pal^3, Lys(iPr)^5, D-His^6, Trp^7, Orn^8, D-Ala^10-LHRH.TFA [Compound 3852]",8/8@5.0
2,"Ac-L-(or D)-9-anthryl-Ala^1, 4-Cl-D-Phe^2, D-Pal^3, D-Cit^6-Lys(iPr)^8, D-Ala^10-LHRH.TFA [Compound 3367]",7/8@5 μg

# Same assay, conditions: dose 50 μg per rat
row,Molecule,AO activity (AOA): rats which ovulate / rats treated
1,Lys(COCH2Br)^8-LHRH [Compound 3942],8/8@50.0
2,Met(S^+Me)^8-LHRH.TFA [Compound 3941],8/8@50.0

# Same assay, conditions: rat, in vivo
row,Molecule,"AO activity (AOA), in words"
1,"Ac-D-Nal^1, 4-Cl-D-Phe^2, D-Trp^3, D-Lys(COCH2Br)^6, D-Ala^10-LHRH.TFA [Compound 3948]",low activity

# Source: patent US7071165B2, “LHRH antagonist peptides” (Indiana University Research and Technology Corporation, priority 1995, dated 2006)
